{"source": "ChEMBL document CHEMBL1126410", "about": "“Synthesis and activity in cognition-related tests of novel 2-benzoylamino-4-oxoquinazolines” (1992)", "key": {"Mus musculus [1]": {"tested_on": "Mus musculus", "test": "Evaluated for improvement of anoxic amnesia in mice after ip administration of 50 mg/kg dose", "assay_type": "functional", "details": "route intraperitoneal"}, "Mus musculus [2]": {"tested_on": "Mus musculus", "test": "The compound was evaluated for hypoxic survival activity in mice after intraperitoneal administration at 50 mg/kg dose; 80-90", "assay_type": "functional", "details": "ip"}, "Mus musculus [3]": {"tested_on": "Mus musculus", "test": "The compound was evaluated for hypoxic survival activity in mice after intraperitoneal administration at 10-100 mg/kg dose; Inactive", "assay_type": "functional, organism-based"}, "Mus musculus [4]": {"tested_on": "Mus musculus", "test": "The compound was evaluated for hypoxic survival activity in mice after intraperitoneal administration at 100 mg/kg dose; 50-95", "assay_type": "functional", "details": "ip"}, "Mus musculus [5]": {"tested_on": "Mus musculus", "test": "The compound was evaluated for hypoxic survival activity in mice after intraperitoneal administration at 100 mg/kg dose; 55-55", "assay_type": "functional", "details": "ip"}, "Mus musculus [6]": {"tested_on": "Mus musculus", "test": "The compound was evaluated for hypoxic survival activity in mice after intraperitoneal administration at 10 mg/kg dose; 30-80", "assay_type": "functional", "details": "ip"}, "Mus musculus [7]": {"tested_on": "Mus musculus", "test": "The compound was evaluated for hypoxic survival activity in mice after intraperitoneal administration at 100 mg/kg dose; 50-90", "assay_type": "functional", "details": "ip"}, "Mus musculus [8]": {"tested_on": "Mus musculus", "test": "The compound was evaluated for hypoxic survival activity in mice after intraperitoneal administration at 100 mg/kg dose", "assay_type": "functional", "details": "ip"}, "Mus musculus [9]": {"tested_on": "Mus musculus", "test": "The compound was evaluated for hypoxic survival activity in mice after intraperitoneal administration at 10 mg/kg dose; 50-75", "assay_type": "functional", "details": "ip"}, "Mus musculus [10]": {"tested_on": "Mus musculus", "test": "The compound was evaluated for hypoxic survival activity in mice after intraperitoneal administration at 100 mg/kg dose; 65-80", "assay_type": "functional", "details": "ip"}, "Mus musculus [11]": {"tested_on": "Mus musculus", "test": "The compound was evaluated for hypoxic survival activity in mice after intraperitoneal administration at 100 mg/kg dose; 45-65", "assay_type": "functional", "details": "ip"}, "Mus musculus [12]": {"tested_on": "Mus musculus", "test": "The compound was evaluated for hypoxic survival activity in mice after intraperitoneal administration at 0.125 mg/kg dose; 60-80", "assay_type": "functional", "details": "ip"}, "Mus musculus [13]": {"tested_on": "Mus musculus", "test": "The compound was evaluated for hypoxic survival activity in mice after intraperitoneal administration at 100 mg/kg dose; 80-85", "assay_type": "functional", "details": "ip"}, "Mus musculus [14]": {"tested_on": "Mus musculus", "test": "Evaluated for improvement of anoxic amnesia in mice after ip administration of 25 mg/kg dose(341 delay seconds); 79-131", "assay_type": "functional", "details": "route intraperitoneal"}, "Mus musculus [15]": {"tested_on": "Mus musculus", "test": "The compound was evaluated for hypoxic survival activity in mice after intraperitoneal administration at 100 mg/kg dose; 75-80", "assay_type": "functional", "details": "ip"}, "Mus musculus [16]": {"tested_on": "Mus musculus", "test": "Evaluated for improvement of anoxic amnesia in mice after ip administration of 10 mg/kg dose(218 delay seconds); -19-248", "assay_type": "functional", "details": "route intraperitoneal"}, "Mus musculus [17]": {"tested_on": "Mus musculus", "test": "Evaluated for improvement of anoxic amnesia in mice after ip administration of 100 mg/kg dose", "assay_type": "functional", "details": "route intraperitoneal"}, "Rattus norvegicus [18]": {"tested_on": "Rattus norvegicus", "test": "Evaluated for improvement of anoxic amnesia in aged rat after ip administration of 25 mg/kg (300 delay seconds)", "assay_type": "functional", "details": "route intraperitoneal"}, "Rattus norvegicus [19]": {"tested_on": "Rattus norvegicus", "test": "Evaluated for improvement of anoxic amnesia in aged rat after ip administration of 10 mg/kg dose(529 delay seconds)", "assay_type": "functional", "details": "route intraperitoneal"}}, "note": "Active and inactive are the calls of the source. No cut-off for these calls is given here.", "data": [{"smiles": "Cc1ccc(C(=O)Nc2nc3ccccc3c(=O)n2C)cc1", "values": [{"measurement": "Improvement", "setting": "Mus musculus [1]", "result": 116, "unit": "%"}, {"measurement": "survival at 50 mg/kg", "setting": "Mus musculus [2]", "result": 85, "unit": "%"}]}, {"smiles": "Cc1cccc(C(=O)Nc2nc(=O)c3ccccc3n2C)c1", "values": [{"measurement": "Survival", "setting": "Mus musculus [3]", "result": "inactive"}]}, {"smiles": "Cn1c(NC(=O)c2ccccc2)nc(=O)c2ccccc21", "values": [{"measurement": "survival at 100 mg/kg", "setting": "Mus musculus [4]", "result": 70, "unit": "%"}]}, {"smiles": "Cc1ccc2nc(NC(=O)c3ccccc3)nc(O)c2c1", "values": [{"measurement": "survival at 100 mg/kg", "setting": "Mus musculus [5]", "result": 55, "unit": "%"}]}, {"smiles": "O=C(Nc1nc(O)c2ccccc2n1)c1ccc(Cl)cc1", "values": [{"measurement": "survival at 10 mg/kg", "setting": "Mus musculus [6]", "result": 55, "unit": "%"}]}, {"smiles": "COc1cc2nc(NC(=O)c3ccccc3)nc(O)c2cc1OC", "values": [{"measurement": "survival at 100 mg/kg", "setting": "Mus musculus [7]", "result": 70, "unit": "%"}]}, {"smiles": "CC(C)n1c(NC(=O)c2ccccc2)nc2ccccc2c1=O", "values": [{"measurement": "survival at 100 mg/kg", "setting": "Mus musculus [8]", "result": 55, "unit": "%"}]}, {"smiles": "Cc1ccc(C(=O)Nc2nc(O)c3ccccc3n2)cc1", "values": [{"measurement": "survival at 10 mg/kg", "setting": "Mus musculus [9]", "result": 63, "unit": "%"}]}, {"smiles": "O=C(Nc1nc(O)c2ccccc2n1)c1ccccc1", "values": [{"measurement": "survival at 100 mg/kg", "setting": "Mus musculus [10]", "result": 73, "unit": "%"}, {"measurement": "Improvement", "setting": "Mus musculus [1]", "result": 130, "unit": "%"}]}, {"smiles": "Cc1ccc(C(=O)Nc2nc(=O)c3ccccc3n2C)cc1", "values": [{"measurement": "Improvement", "setting": "Mus musculus [1]", "result": 224, "unit": "%"}, {"measurement": "survival at 100 mg/kg", "setting": "Mus musculus [11]", "result": 55, "unit": "%"}]}, {"smiles": "COc1ccc(C(=O)Nc2nc(O)c3ccccc3n2)cc1", "values": [{"measurement": "survival at 10 mg/kg", "setting": "Mus musculus [9]", "result": 63, "unit": "%"}]}, {"smiles": "CNC(=O)Oc1ccc2c(c1)[C@]1(C)CCN(C)[C@@H]1N2C", "note": "[PHYSOSTIGMINE]", "values": [{"measurement": "survival at 0.125 mg/kg", "setting": "Mus musculus [12]", "result": 60, "unit": "%"}]}, {"smiles": "Cc1cccc(C(=O)Nc2nc(O)c3ccccc3n2)c1", "values": [{"measurement": "survival at 100 mg/kg", "setting": "Mus musculus [13]", "result": 83, "unit": "%"}]}, {"smiles": "Cn1c(NC(=O)c2ccccc2)nc2ccccc2c1=O", "values": [{"measurement": "Improvement", "setting": "Mus musculus [14]", "result": 105, "unit": "%"}, {"measurement": "survival at 100 mg/kg", "setting": "Mus musculus [15]", "result": 78, "unit": "%"}, {"measurement": "Improvement", "setting": "Mus musculus [16]", "result": 94, "unit": "%"}, {"measurement": "Improvement", "setting": "Mus musculus [17]", "result": 78, "unit": "%"}, {"measurement": "Improvement", "setting": "Rattus norvegicus [18]", "result": 733, "unit": "%"}, {"measurement": "Improvement", "setting": "Rattus norvegicus [19]", "result": 1369, "unit": "%"}]}]}
